Reference: patent publication US11311523B2, “Pyridinone compound and use thereof” (KYUSHU UNIVERSITY, NATIONAL UNIVERSITY CORPORATION, priority 2015, dated 2022)
Entries after “also recorded” stand apart in the source; their conditions may differ.

How the values were obtained:
DHR-2 domain of DOCK1 = biological target: T1, DHR-2 domain of DOCK1 (Homo sapiens, UniProt Q14185); assay: in vitro GEF assay (Bodipy-FL-GTP loading of Rac); format: biochemical; settings: from IC50 values for DOCK1, DOCK2, DOCK5
T1 construct: Polypeptide fragments that correspond to the DHR-2 domain of DOCK1, DOCK2, or DOCK5; Histidine-SUMO (N); made in house; host or cells: E. coli Arctic express (DE3)
T1 sequence (Q14185 1207-1617 limits assumed): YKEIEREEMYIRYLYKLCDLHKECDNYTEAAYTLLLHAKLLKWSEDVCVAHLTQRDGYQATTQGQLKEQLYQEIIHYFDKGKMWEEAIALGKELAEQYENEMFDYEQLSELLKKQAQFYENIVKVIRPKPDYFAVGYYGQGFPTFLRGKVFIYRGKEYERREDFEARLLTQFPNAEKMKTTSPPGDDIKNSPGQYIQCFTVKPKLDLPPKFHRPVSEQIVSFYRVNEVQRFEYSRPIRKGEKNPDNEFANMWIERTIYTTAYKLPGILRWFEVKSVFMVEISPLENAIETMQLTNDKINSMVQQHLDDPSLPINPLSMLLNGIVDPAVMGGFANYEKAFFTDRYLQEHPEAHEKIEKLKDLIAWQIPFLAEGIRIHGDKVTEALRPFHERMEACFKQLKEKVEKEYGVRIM
Source text: Pharmacological Test 1 (In Vitro GEF Assay)
DOCK1, DOCK2, and DOCK5, which are DOCK-A subfamily members, catalyze the GTP-GDP exchange reaction for Rac via the DHR-2 domain to activate Rac.
The in vitro GEF assay referred to in this specification used a labeled GTP (Bodipy-FL-GTP, Invitrogen), whose fluorescence intensity increases when bound to Rac.
Polypeptide fragments that correspond to the DHR-2 domain of DOCK1, DOCK2, or DOCK5 were expressed in E. coli Arctic express (DE3) cells as N-terminal Histidine-SUMO tag-fused recombinant proteins and purified by affinity column chromatography on nickel-NTA columns.
Rac was expressed in E. coli BL21 (DE3) cells as an N-terminal GST tag-fused recombinant protein and purified by affinity column chromatography on glutathione-Sepharose columns.
Subsequently, a reaction solution A containing 20 mM of MES-NaOH, 150 mM of NaCl, 10 mM of MgCl2, and 20 μM of GDP, and having an adjusted pH of 7.0 was incubated at room temperature for 30 minutes while being protected from light in the presence of each of the polypeptide fragments (DHR-2 domains) prepared above and each pyridinone compound or CPYPP dissolved at a predetermined concentration in DMSO or DMSO alone (control) to thus prepare GEF pretreated products. In all of the samples, the final DMSO concentration was adjusted to 3%.
Thereafter, 15 μM of Rac prepared above was added to the reaction solution A and directly allowed to stand on ice for 30 minutes to form a GDP-Rac complex.
Bodipy-FL-GTP was added to 100 μL of the reaction solution A containing the thus prepared GDP-Rac complex to a concentration of 3.6 μM, followed by equilibration at 30° C. for 2 minutes. After equilibration, 50 μL of the pretreated GEF was added for reaction at 30° C.
Changes in fluorescence intensity of Bodipy-FL-GTP were monitored during the reaction using an XS-N (Molecular Devices) or an Enspire spectrofluorometer (Perkin Elmer) (excitation wavelength: 488 nm, emission wavelength: 514 nm). The measured values were corrected so that the fluorescence intensity at the time that the reaction was initiated (0 seconds) was 0.
Then, an approximate curve (hyperbola) was obtained by plotting the calculated correction values on the y axis and the time (t) on the x axis using GraphPad Prism5 (GraphPad software), and the slope at t=0 to 10 seconds was considered to be an initial velocity of guanine nucleotide exchange reaction. The IC50 value was calculated taking the initial reaction velocity of the control, to which only a solvent (DMSO) was added, as 100%.

[1] = system: mouse lung carcinoma cell line (3LL); assay: cellular invasion inhibition assay (Matrigel chamber); format: cell-based; settings: 3LL cells; for inhibition of cancer cell (3LL) invasion: 22 hours, compared to DMSO; for IC50: Mus musculus, FIG. 12(B), read-out: IC50 value calculated from cancer cell invasion inhibition
Method: (§1) Pharmacological Test 2 (Cellular Invasion Inhibition Assay)
(§2) Three hundred microliters of a suspension of a mouse lung carcinoma cell line (3LL), a human fibrosarcoma cell line (HT-1080), or a human colon cancer cell line (DLD-1) in DMEM (serum free) was placed in the upper chamber with Matrigel (BD Biosciences) equilibrated with DMEM (serum free) for 120 minutes, while 500 μL of DMEM (with 10% FCS) was placed in the lower chamber. Each pyridinone compound or CPYPP dissolved at a predetermined concentration in DMSO was added to the culture media in both the upper and lower chambers. As a control, DMSO alone was added to the media. In all of the experiments, the final DMSO concentration was adjusted to 0.2%.
(§3) After the resulting products were cultured at 37° C. under 5% CO2 for 22 hours, the chambers were removed, and the culture media were removed. […] After staining, the inserts were cut out with a blade to prepare slides, and the cells were counted under an optical microscope.
(§4) The results were evaluated based on percent cell invasion (%: Invasion) and percent inhibition (%: inhibition). The percent cell invasion was obtained by converting the number of invading cells under each condition to percentage, taking the number of invading cells in the control, to which DMSO was added alone, as 100%; and the percent inhibition was obtained by deducting the percent cell invasion from 100.

[2] = system: human fibrosarcoma cell line (HT-1080); assay: as above; format: cell-based; settings: FIG. 12(C)
Method: as §1, §2, §3, §4

mouse spleen T cells = assay: T lymphocyte migration towards CCL21 (Transwell); format: cell-based; settings: FIG. 16(A)
Source text: Pharmacological Test. 6 (Evaluation on T Lymphocyte Migration)
Lymphocyte migration plays key roles in immune responses. T cell stimulation by chemokines, such as CCL21, induces actin cytoskeletal remodeling through Rac activation. This drives the cells to migrate towards the source of chemokines.
Therefore, the use of various pyridinone compounds in this assay system enables cell-level verification of DOCK1 selectivity.
Mouse spleen cells at a cell concentration of 1×10^7 cells/mL were precultured at 37° C. for 1 hour in 0.5% BSA-containing RPMI-1640 (Transwell medium) containing DMSO alone or DMSO in which each pyridinone compound was dissolved at a predetermined concentration.
Subsequently, 500 μL of Transwell medium containing 300 ng/mL of CCL21 and DMSO in which each pyridinone compound was dissolved at a predetermined concentration was added to a 24-well plate. […]
After 2-hour incubation at 37° C., the cells that migrated to the lower chamber were collected and stained with PE-labeled anti-Thy1.2 antibody (53-2-1, BD Pharmingen) and APC-labeled anti-B220 antibody (RA-6B-2, eBioscience). The percentage (%) of the migrated cells was calculated by dividing the number of Thy1.2^+ cells (T cells) in the lower chamber by the number of Thy1.2^+ cells (T cells) placed into the Transwell inserts. […]

Compound | selectivity of GEF inhibition to DOCK1 versus DOCK2 and DOCK5 (DHR-2 domain of DOCK1) | inhibition of cancer cell (3LL) invasion [1] | IC50 [1] [µM] | inhibition of HT-1080 cell invasion [2] | CCL21-stimulated T cell migration (mouse spleen T cells)
O=C(Cn1cc(S(=O)(=O)N2CCCC2)ccc1=O)c1ccc(-c2ccc3ccccc3c2)cc1 [TS-28, 1-(2-(4-(naphthalen-2-yl)phenyl)-2-oxoethyl)-5-(pyrrolidin-1-ylsulfonyl)pyridin-2(1H)-one] | high selectivity to DOCK1 | significantly excellent inhibitory effect; also recorded: inhibit cancer cell invasion in a concentration-dependent manner | 5.6 | inhibit HT-1080 cell invasion | did not affect
O=C(Cn1cc(S(=O)(=O)N2CCCC2)ccc1=O)c1ccc(-c2cccc(C(F)(F)F)c2)cc1 [TS-45, 1-(2-oxo-2-(3′-(trifluoromethyl)-[1,1′-biphenyl]-4-yl)ethyl)-5-(pyrrolidin-1-ylsulfonyl)pyridin-2(1H)-one] | high selectivity to DOCK1 | significantly excellent inhibitory effect; also recorded: inhibit cancer cell invasion in a concentration-dependent manner | 3 | inhibit HT-1080 cell invasion | did not affect
